Assays:
[1] = Elimination half life in Beagle dog at 0.3 mg/kg, iv; format: ADME, organism-based, Canis lupus familiaris; design: dose 0.3 mg/kg, route intravenous; settings: in vivo
[2] = Plasma clearance in Beagle dog at 0.3 mg/kg, iv; format: ADME, organism-based, Canis lupus familiaris; design: dose 0.3 mg/kg, route intravenous
[3] = Volume of distribution in Beagle dog at 0.3 mg/kg, iv; format: ADME, organism-based, Canis lupus familiaris; design: dose 0.3 mg/kg, route intravenous; settings: in vivo
Canis familiaris = experiment: Unbound volume of distribution in Beagle dog at 0.3 mg/kg, iv; format: ADME, organism-based, Canis lupus familiaris; design: dose 0.3 mg/kg, route intravenous; settings: in vivo
[4] = Oral bioavailability in Beagle dog at 0.6 mg/kg; format: ADME, organism-based, Canis lupus familiaris; settings: in vivo
[5] = Oral absorption in Beagle dog at 0.6 mg/kg, po; format: ADME, organism-based, Canis lupus familiaris; design: dose 0.6 mg/kg, route oral; settings: in vivo, read-out: Fabs
[6] = Elimination half life in Sprague-Dawley rat at 0.5 mg/kg, iv; format: ADME, organism-based; design: dose 0.5 mg/kg, route intravenous; settings: in vivo
[7] = Plasma clearance in Sprague-Dawley rat at 0.5 mg/kg, iv; format: ADME, organism-based; design: dose 0.5 mg/kg, route intravenous
[8] = Volume of distribution in Sprague-Dawley rat at 0.5 mg/kg, iv; format: ADME, organism-based; design: dose 0.5 mg/kg, route intravenous; settings: in vivo
Rattus norvegicus = experiment: Unbound volume of distribution in Sprague-Dawley rat at 0.5 mg/kg, iv; format: ADME, organism-based; design: dose 0.5 mg/kg, route intravenous; settings: in vivo
[9] = Cmax in Sprague-Dawley rat at 1 mg/kg, po; format: ADME, organism-based; design: dose 1 mg/kg, route oral; settings: in vivo
[10] = Tmax in Sprague-Dawley rat at 1 mg/kg, po; format: ADME, organism-based; design: dose 1 mg/kg, route oral; settings: in vivo
[11] = Elimination half life in Sprague-Dawley rat at 1 mg/kg, po; format: ADME, organism-based; design: dose 1 mg/kg, route oral; settings: in vivo
[12] = Oral bioavailability in Sprague-Dawley rat at 1 mg/kg; format: ADME, organism-based; settings: in vivo
[13] = Cmax in human at 0.02 mg/kg, po; format: ADME, organism-based; design: dose 0.02 mg/kg, route oral; settings: in vivo
[14] = Tmax in human at 0.02 mg/kg, po; format: ADME, organism-based; design: dose 0.02 mg/kg, route oral; settings: in vivo
[15] = Elimination half life in human at 0.02 mg/kg, po; format: ADME, organism-based; design: dose 0.02 mg/kg, route oral; settings: in vivo
[16] = Protein binding in Sprague-Dawley rat plasma at 1 ug/ml; format: ADME, cell-free; settings: read-out: PPB (converted)
[17] = Protein binding in Beagle dog plasma at 1 ug/ml; format: ADME, cell-free, Canis lupus familiaris; settings: read-out: PPB (converted)
[18] = Oral bioavailability in human at 0.25 to 1.5 mg/kg; format: ADME, organism-based; settings: in vivo
[19] = Lipophilicity, log D in 0.1M potassium phosphate buffer at pH 7.4; format: physicochemical
[20] = Dissociation constant, pKa of the compound; format: physicochemical
[21] = Metabolic stability in human liver microsomes assessed as half life at 1 uM; format: ADME, Microsome
[22] = Fraction unbound in human liver microsomes at 1 uM; format: ADME, Microsome
Liver microsomes = experiment: Unbound intrinsic clearance in human liver microsomes at 1 uM; format: ADME, Microsome
[23] = Metabolic stability in Beagle dog liver microsomes assessed as half life at 1 uM; format: ADME, Canis lupus familiaris, Microsome
[24] = Fraction unbound in Beagle dog liver microsomes at 1 uM; format: ADME, Canis lupus familiaris, Microsome
Liver = experiment: Unbound intrinsic clearance in Beagle dog liver microsomes at 1 uM; format: ADME, Canis lupus familiaris, Microsome
Homo sapiens = species: Homo sapiens; experiment: Protein binding in human plasma at 1 ug/ml; settings: read-out: PPB (converted)

Work on `COc1cc2nc(N3CCc4c(cccc4NS(C)(=O)=O)C3)nc(N)c2c(-c2ccccn2)c1OC` [TAPRIZOSIN] yielded a half-life [1] of 9.2 h, a clearance [2] of 5.6 mL/min/kg and a Vd [3] of 4.4 L/kg. For the same compound, the Vd (Canis familiaris) was 21 L/kg, the bioavailability [4] was 79% and the Fa [5] was 89%. For the same compound, the half-life [6] was 1 h, the clearance [7] was 22 mL/min/kg and the Vd [8] was 1.7 L/kg. For the same compound, the Vd (Rattus norvegicus) was 24 L/kg, the Cmax [9] was 105 ng/mL and the Tmax [10] was 0.5 h. It also gave a half-life [11] of 2.9 h, a bioavailability [12] of 42% and a Cmax [13] of 7.5 ng/mL. For the same compound, the Tmax [14] was 1.3 h, the half-life [15] was 11.4 h and the fraction unbound at 1 ug/ml [16] was 0.07. The fraction unbound at 1 ug/ml [17] was 0.21, the bioavailability [18] was 73% and the logD [19] was 3. The pKa [20] was 6.7, the half-life at 1 µM [21] was 0.683 h and the fraction unbound at 1 µM [22] was 0.564. The CL (Liver microsomes) was 13 mL/min/kg, the half-life at 1 µM [23] was 0.5 h and the fraction unbound at 1 µM [24] was 0.602. It also gave a CL (Liver) of 83 mL/min/kg and a fraction unbound at 1 ug/ml (Homo sapiens) of 0.07.
